System: longitudinal muscle with adherent myenteric plexus preparation
Assay: Gastrointestinal motility promoting action: increase of electrically induced twitch response of isolated guinea pig ileum
Assay type: cell-based, guinea pigs
Details: compound at 10⁻⁵ M, transmural electrical stimulation (1 msec, 0.1 Hz)
Description: The gastrointestinal motility promoting action of the present compounds was tested by the following method.
Ileum was excised from guinea pigs to prepare longitudinal muscle with adherent myenteric plexus preparation (approximately 2 cm length). The preparation suspended in organ bath containing Krebs-Henselite solution aerated with a mixed gas (5% CO₂, 95% O₂) were subjected to transmural electrical stimulation (1 msec, 0.1 Hz). Consistent twitch response induced by electrical stimulation and increase of twitch response induced by compound were recorded with an isometric transducer. The compounds were dissolved in distilled water or DMSO and tested at concentration of 10⁻⁵ M. The result is shown in terms of percent increase (%) in the contraction height by the electrical stimulation after administration of the compound relative to the contraction height before administration of the compound. Compound of Example 10 16.1% Compound of Example 29 22.4%

| SMILES | percent increase (%) in the contraction height by the electrical stimulation after administration of the compound relative to the contraction height before administration of the compound [%] |
| --- | --- |
| CC(C)=CCn1nc(C(=O)NC2CC3COCC(C2)N3Cc2ccc(F)cc2)c2ccccc21 (stereo not drawn) [Example 10, N-[endo-9-(p-fluorobenzyl)-3-oxa-9-azabicyclo[3.3.1]non-7-yl]-1-(3-methyl-2-butenyl)indazole-3-carboxamide] | 16.1 |
| COc1cc(N)c(Cl)cc1C(=O)NC1CC2COCC(C1)N2Cc1ccc(F)cc1 (stereo not drawn) [Example 29, N-[endo-9-(p-fluorobenzyl)-3-oxa-9-azabicyclo[3.3.1]non-7-yl]-4-amino-5-chloro-2-methoxybenzamide] | 22.4 |

— patent EP0623621A1, “Oxazabicyclo derivatives and their use as 5-HT4 receptor agonists” (NISSHIN FLOUR MILLING CO., LTD., priority 1993, dated 1994)
